Converted amounts (≈) assume the structure as drawn. The source made the active and inactive calls. The calls are words filed in the database; no cut-off is given here.
How the values were obtained:
[1] = tested on: Candida albicans; test: Antifungal activity against Candida albicans SC5314 assessed as fungal growth inhibition incubated for 72 hrs by CLSI based susceptibility test; assay type: functional
[2] = tested on: Aspergillus fumigatus; test: Antifungal activity against Aspergillus fumigatus KM8001 assessed as fungal growth inhibition incubated for 72 hrs by CLSI based susceptibility test; assay type: functional
[3] = tested on: Cryptococcus neoformans; test: Antifungal activity against Cryptococcus neoformans ZKCC 2209 assessed as fungal growth inhibition incubated for 72 hrs by CLSI based susceptibility test; assay type: functional
[4] = tested on: Nakaseomyces glabratus; test: Antifungal activity against Candida glabrata assessed as fungal growth inhibition incubated for 72 hrs by CLSI based susceptibility test; assay type: functional
[5] = tested on: Candida tropicalis; test: Antifungal activity against Candida tropicalis ATCC 1369 assessed as fungal growth inhibition incubated for 72 hrs by CLSI based susceptibility test; assay type: functional
[6] = tested on: Candida albicans; test: Antifungal activity against FLC-resistant Candida albicans 17# assessed as fungal growth inhibition incubated for 72 hrs by CLSI based susceptibility test; assay type: functional
[7] = molecular target: T1, Lanosterol 14-alpha demethylase (Candida albicans (strain SC5314 / ATCC MYA-2876) (Yeast), UniProt P10613); test: Inhibition of CYP51 in Candida albicans SC5314 using lanosterol as substrate incubated for 60 mins by HPLC analysis
[8] = molecular target: T2, Programmed cell death 1 ligand 1 (Homo sapiens, UniProt Q9NZQ7); test: Inhibition of human PD-L1 incubated for 15 mins by ELISA method
[9] = tested on: Candida albicans; test: Antifungal activity against FLC-resistant Candida albicans 904 assessed as fungal growth inhibition incubated for 72 hrs by CLSI based susceptibility test; assay type: functional
[10] = molecular target: T1, Lanosterol 14-alpha demethylase; test: Inhibition of CYP51 in Candida albicans SC5314 assessed as lanosterol level at 4 ug/ml incubated for 16 hrs by GC-MS analysis relative to control; set-up: scale not given: the % may be the effect or the level left; details: at 4 µg/mL
[11] = tested on: Candida albicans; test: Antifungal activity against FLC-resistant Candida albicans CaR assessed as fungal growth inhibition incubated for 72 hrs by CLSI based susceptibility test; assay type: functional
[12] = tested on: Candida albicans; test: Antifungal activity against FLC-resistant Candida albicans 901 assessed as fungal growth inhibition incubated for 72 hrs by CLSI based susceptibility test; assay type: functional
[13] = tested on: Candida albicans; test: Antifungal activity against FLC-resistant Candida albicans 632 assessed as fungal growth inhibition incubated for 72 hrs by CLSI based susceptibility test; assay type: functional
[14] = tested on: Candida albicans; test: Induction of apoptosis in Candida albicans SC5314 assessed as necrotic cells incubated for 48 hrs by annexin V-FITC/PI staining based flow cytometry (reference value: 2.12 %); assay type: functional
[15] = tested on: Candida albicans; test: Induction of mitochondrial membrane depolarization in Candida albicans SC5314 by JC-1 staining based flow cytometry (reference value: 12.51 %); assay type: functional
[16] = tested on: Candida albicans; test: Induction of apoptosis in Candida albicans SC5314 assessed as apoptotic cells incubated for 48 hrs by annexin V-FITC/PI staining based flow cytometry (reference value: 2.12 %); assay type: functional
[17] = molecular target: T1, Lanosterol 14-alpha demethylase; test: Inhibition of CYP51 in Candida albicans SC5314 assessed as unknown sterol level at 4 ug/ml incubated for 16 hrs by GC-MS analysis (reference value: 5.35 %); set-up: scale not given: the % may be the effect or the level left; details: at 4 µg/mL
[18] = tested on: Candida albicans; test: Induction of apoptosis in Candida albicans SC5314 assessed as increase in ROS level at 1 uM/ml incubated for 48 hrs by fluorescence microscopy; assay type: functional, organism-based
[19] = molecular target: T1, Lanosterol 14-alpha demethylase; test: Inhibition of CYP51 in Candida albicans SC5314 assessed as ergosterol level at 4 ug/ml incubated for 16 hrs by GC-MS analysis (reference value: 92.07 %); set-up: scale not given: the % may be the effect or the level left; details: at 4 µg/mL
[20] = molecular target: T2, Programmed cell death 1 ligand 1; test: Binding affinity to PD-L1 (unknown origin) immobilized on carboxy chip assessed as dissociation constant by SPR analysis

T1 sequence (P10613 whole entry): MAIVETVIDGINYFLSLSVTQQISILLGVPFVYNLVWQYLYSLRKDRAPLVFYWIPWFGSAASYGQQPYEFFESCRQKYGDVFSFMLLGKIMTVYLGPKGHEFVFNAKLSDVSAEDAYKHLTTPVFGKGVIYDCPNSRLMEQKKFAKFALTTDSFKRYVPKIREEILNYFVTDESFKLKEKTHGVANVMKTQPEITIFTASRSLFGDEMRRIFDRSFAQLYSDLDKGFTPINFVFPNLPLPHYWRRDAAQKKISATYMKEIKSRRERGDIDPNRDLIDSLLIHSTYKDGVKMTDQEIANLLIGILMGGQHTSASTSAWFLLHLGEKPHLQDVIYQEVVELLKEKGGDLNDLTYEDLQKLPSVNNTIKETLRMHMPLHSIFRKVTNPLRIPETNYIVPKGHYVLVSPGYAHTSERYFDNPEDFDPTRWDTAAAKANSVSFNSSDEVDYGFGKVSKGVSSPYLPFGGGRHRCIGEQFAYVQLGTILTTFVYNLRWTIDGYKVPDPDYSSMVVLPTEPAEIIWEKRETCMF
T2 sequence (Q9NZQ7 whole entry): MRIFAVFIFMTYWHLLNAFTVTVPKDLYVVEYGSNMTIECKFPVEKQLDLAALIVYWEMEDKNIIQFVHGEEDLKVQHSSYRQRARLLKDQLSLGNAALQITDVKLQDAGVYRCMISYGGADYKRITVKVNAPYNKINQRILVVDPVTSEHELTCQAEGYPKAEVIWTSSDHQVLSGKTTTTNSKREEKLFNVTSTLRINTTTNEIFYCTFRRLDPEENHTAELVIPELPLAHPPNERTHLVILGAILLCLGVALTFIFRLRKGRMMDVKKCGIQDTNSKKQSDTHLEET

SMILES	MIC50 [1] [µg/mL]	MIC50 [2] [µg/mL]	MIC50 [3] [µg/mL]	MIC50 [4] [µg/mL]	MIC50 [5] [µg/mL]	other results
CCOC(=O)[C@@H](Cn1ccnc1)NC(=O)C1CCCN(Cc2cccc(-c3ccccc3)c2C)C1 (stereo not given in full)	0.25 (≈ 0.527 µM)	> 8	1 (≈ 2.11 µM)	0.5 (≈ 1.05 µM)	0.25 (≈ 0.527 µM)	
Cc1c(CN2CCCC(C(=O)N[C@H](Cn3ccnc3)C(=O)OC(C)C)C2)cccc1-c1ccccc1 (stereo not given in full)	0.5 (≈ 1.02 µM)	> 8	1 (≈ 2.05 µM)	0.5 (≈ 1.02 µM)	1 (≈ 2.05 µM)	
Cc1c(CN2CCCC(C(=O)N[C@H](Cn3cncn3)C(=O)OC(C)C)C2)cccc1-c1ccccc1 (stereo not given in full)	0.125 (≈ 0.255 µM)	2 (≈ 4.08 µM)	1 (≈ 2.04 µM)	0.5 (≈ 1.02 µM)	0.25 (≈ 0.511 µM)	MIC50 [6]: 4 µg/mL (≈ 8.17 µM); IC50 [7]: 320 nM; IC50 [8]: 35 nM; MIC50 [9]: 4 µg/mL (≈ 8.17 µM); Activity [10]: 11.25%; MIC50 [11]: 4 µg/mL (≈ 8.17 µM); MIC50 [12]: ≥ 8 µg/mL; MIC50 [13]: 2 µg/mL (≈ 4.08 µM); Activity [14]: 25.91%; Activity [15]: 34.74%; Activity [16]: 25.91%; Activity [17]: 4.19%; Activity [18]: Active; Activity [19]: 14.71%; Kd [20]: 15 nM
CCOC(=O)[C@@H](Cn1cncn1)NC(=O)C1CCCN(Cc2cccc(-c3ccccc3)c2C)C1 (stereo not given in full)	0.25 (≈ 0.526 µM)	> 8	2 (≈ 4.21 µM)	0.5 (≈ 1.05 µM)	0.5 (≈ 1.05 µM)	
COC(=O)[C@@H](Cn1ccnc1)NC(=O)C1CCCN(Cc2cccc(-c3ccccc3)c2C)C1 (stereo not given in full)	0.5 (≈ 1.09 µM)	4 (≈ 8.68 µM)	0.5 (≈ 1.09 µM)	2 (≈ 4.34 µM)	1 (≈ 2.17 µM)	
CCOC(=O)[C@@H](Cn1cncn1)NC(=O)C1CCCN(C(=O)c2cccc(-c3ccccc3)c2)C1 (stereo not given in full)	0.25 (≈ 0.526 µM)	> 8	2 (≈ 4.21 µM)	0.5 (≈ 1.05 µM)	0.5 (≈ 1.05 µM)	
Cc1c(COc2cccc(CN[C@H](Cn3cncn3)C(=O)OC(C)C)c2)cccc1-c1ccccc1	2 (≈ 4.13 µM)	8 (≈ 16.5 µM)	2 (≈ 4.13 µM)	0.25 (≈ 0.516 µM)	2 (≈ 4.13 µM)	
CCOC(=O)[C@@H](Cn1cncn1)NCc1cccc(OCc2cccc(-c3ccccc3)c2C)c1	1 (≈ 2.13 µM)	4 (≈ 8.5 µM)	2 (≈ 4.25 µM)	0.25 (≈ 0.531 µM)	1 (≈ 2.13 µM)	
CC(C)OC(=O)[C@@H](Cn1cncn1)NC(=O)C1CCCN(C(=O)c2cccc(-c3ccccc3)c2)C1 (stereo not given in full)	0.5 (≈ 1.02 µM)	4 (≈ 8.17 µM)	2 (≈ 4.09 µM)	1 (≈ 2.04 µM)	1 (≈ 2.04 µM)	
COC(=O)[C@@H](Cn1ccnc1)NCc1cccc(OCc2cccc(-c3ccccc3)c2C)c1	0.5 (≈ 1.1 µM)	> 8	1 (≈ 2.2 µM)	1 (≈ 2.2 µM)	2 (≈ 4.39 µM)	

Source: ChEMBL document CHEMBL5365529, “Construction and Evaluation of Novel Dual-function Antifungal Inhibitors and Covalent Organic Framework Carriers Based on the Infection Microenvironment” (J Med Chem, 2023)
